According to patent publication US12630501B2, “Anti-fibrotic compounds and use thereof” (HADASIT MEDICAL RESEARCH SERVICES AND DEVELOPMENT LTD., priority 2019, dated 2026):

What was measured:
[1] = biological target: HDAC9 (Homo sapiens, UniProt Q9UKV0); conditions: prostate cancer cells; cited from earlier work
[2] = test system: Ku70; assay: Ku70 immunoprecipitation with pan-acetyl / Ku70 immunoblot in IPF-lung myofibroblasts; type: cell-based, human; conditions: CMH 30 μM, 72 h
Experimental: Human lung myofibroblasts Differentiated fibroblasts from IPF-lungs and controls from patient lung biopsies performed for tumor diagnosis were obtained under a protocol detailed in Wallach-Dayan et al., J. Autoimmun. 59: 67-76, 2015. LL 97A (AlMy) (ATCC® CCL-191™)-IPF-lung, and LL 24 (ATCC® CCL-151™)-normal lung fibroblast cell lines were used.
Immunoprecipitation and immunoblotting Standard protocols were performed as described in Golan-Gerstl et al., Am. J. Respir. Cell Mol. Biol. 47: 271-279, 2012.
FLIP downregulation from an OD of 1.85 to 0.49 (about 3.5-fold) was detected in WB (FIG. 4F), and a […] from a mean fluorescence intensity (MFI)=10^3 to only 10^1 was detected with flow cytometry (FIG. 4G). Thus, SIRT1-mediated Ku70-deacetylation stabilizes IPF-lung myofibroblast FLIP via Ku70/FLIP complex. This effect of CMH on Ku70 further disrupts Ku70/FLIP complex and destabilizes FLIP in IPF-lung myofibroblasts.
IPF cell line ATCC-191 (0.5×10^6), were exposed in culture (10% DMEM) to a compound of Formula 6 (1 or 3 μM) vs. 4% DMSO (vehicle) for 16 h. Ku70 immunoprecipitation with subsequent pan-acetyl (FIG. 8A) and immunoblots of Ku70 with anti-Ku70 mAb (FIG. 8B) or FLIP with anti-FLIP mAb (FIG. 8C) were measured. […] IPF-lung myofibroblasts decreased FLIP expression from an OD of 1.00 to 0.51 (about twofold, FIG. 8C).

[3] = biological target: T1, HDAC8 (Homo sapiens, UniProt Q9BY41); conditions: prostate cancer cells; cited from earlier work
T1 sequence (Q9BY41 1-377): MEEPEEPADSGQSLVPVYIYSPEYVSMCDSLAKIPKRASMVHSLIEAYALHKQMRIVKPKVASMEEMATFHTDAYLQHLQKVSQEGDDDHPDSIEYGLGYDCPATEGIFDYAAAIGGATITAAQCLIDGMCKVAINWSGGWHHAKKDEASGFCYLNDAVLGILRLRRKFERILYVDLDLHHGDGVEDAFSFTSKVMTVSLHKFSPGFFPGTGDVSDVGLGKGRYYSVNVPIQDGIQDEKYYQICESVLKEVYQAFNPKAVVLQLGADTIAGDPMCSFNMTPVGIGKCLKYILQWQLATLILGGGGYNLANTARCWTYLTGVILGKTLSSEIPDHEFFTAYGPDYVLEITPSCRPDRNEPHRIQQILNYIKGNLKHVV

[4] = biological target: T2, HDAC10 (Homo sapiens, UniProt Q969S8); conditions: prostate cancer cells; cited from earlier work
T2 sequence (Q969S8 1-669): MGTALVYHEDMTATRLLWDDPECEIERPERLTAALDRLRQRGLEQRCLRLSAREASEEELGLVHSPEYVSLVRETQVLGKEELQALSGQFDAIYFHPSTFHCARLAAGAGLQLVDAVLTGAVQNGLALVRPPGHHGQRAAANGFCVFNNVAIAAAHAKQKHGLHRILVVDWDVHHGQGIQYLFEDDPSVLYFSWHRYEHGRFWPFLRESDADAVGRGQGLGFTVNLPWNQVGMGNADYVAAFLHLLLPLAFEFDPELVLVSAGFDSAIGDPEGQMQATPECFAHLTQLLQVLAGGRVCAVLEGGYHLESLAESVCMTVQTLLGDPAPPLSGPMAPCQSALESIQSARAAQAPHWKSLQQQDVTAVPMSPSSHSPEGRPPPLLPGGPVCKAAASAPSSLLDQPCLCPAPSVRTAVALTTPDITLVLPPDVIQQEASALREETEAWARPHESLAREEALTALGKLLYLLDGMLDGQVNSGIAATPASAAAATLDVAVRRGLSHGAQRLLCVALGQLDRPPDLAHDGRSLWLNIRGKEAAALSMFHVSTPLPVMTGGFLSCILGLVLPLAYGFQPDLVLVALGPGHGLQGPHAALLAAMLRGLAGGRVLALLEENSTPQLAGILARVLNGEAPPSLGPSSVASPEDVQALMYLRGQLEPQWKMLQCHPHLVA

[5] = test system: IPF myofibroblasts of CCL-191 line; assay: Expression of specific genes in IPF myofibroblasts incubated with CMH (Table 1); type: cell-based, human; conditions: CCL-191 incubated with CMH; 2-^ΔΔCt, mean±standard error
Experimental: Table 1 below indicates the expression of specific genes in IPF myofibroblasts of CCL-191 line incubated with CMH and the vehicle, correspondingly, calculated by 2-^ΔΔCt the data is represented as mean±standard error).

HDAC9, sequence (Q9UKV0 whole entry, species assumed): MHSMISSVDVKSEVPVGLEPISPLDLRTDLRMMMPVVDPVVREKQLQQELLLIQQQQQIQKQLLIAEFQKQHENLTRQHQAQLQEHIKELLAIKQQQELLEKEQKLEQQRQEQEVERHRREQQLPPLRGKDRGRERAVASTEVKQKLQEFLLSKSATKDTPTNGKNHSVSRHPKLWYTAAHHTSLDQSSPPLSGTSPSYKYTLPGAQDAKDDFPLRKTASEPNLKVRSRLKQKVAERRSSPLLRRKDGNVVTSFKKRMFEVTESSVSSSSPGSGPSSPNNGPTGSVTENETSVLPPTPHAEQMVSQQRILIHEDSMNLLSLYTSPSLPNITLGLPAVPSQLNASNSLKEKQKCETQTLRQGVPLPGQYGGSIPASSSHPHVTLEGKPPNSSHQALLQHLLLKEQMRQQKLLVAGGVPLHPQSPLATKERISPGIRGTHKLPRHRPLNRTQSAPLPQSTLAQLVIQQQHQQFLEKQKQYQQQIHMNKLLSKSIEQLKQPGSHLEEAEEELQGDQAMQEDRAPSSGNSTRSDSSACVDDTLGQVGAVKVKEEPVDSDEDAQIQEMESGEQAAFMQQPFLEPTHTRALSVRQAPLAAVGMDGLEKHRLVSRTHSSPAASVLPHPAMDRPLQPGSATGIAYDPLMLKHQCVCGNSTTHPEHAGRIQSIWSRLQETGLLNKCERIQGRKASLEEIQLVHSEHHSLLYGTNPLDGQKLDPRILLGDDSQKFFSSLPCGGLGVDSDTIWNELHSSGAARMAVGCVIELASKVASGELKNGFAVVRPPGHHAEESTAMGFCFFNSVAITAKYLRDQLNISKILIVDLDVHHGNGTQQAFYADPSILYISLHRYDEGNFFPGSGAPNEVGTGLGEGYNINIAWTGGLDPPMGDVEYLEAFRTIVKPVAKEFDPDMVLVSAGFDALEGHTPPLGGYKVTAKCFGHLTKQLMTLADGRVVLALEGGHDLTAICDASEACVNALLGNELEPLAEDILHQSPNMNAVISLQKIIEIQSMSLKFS

Cc1cc(Cl)ccc1OCCCC(=O)NO [CMH, 4-(4-chloro-2-methylphenoxy)-N-hydroxybutanamide]
Inhibition of HDAC9 [1]: not inhibited | Increase of Ku70 acetylation [2]: about twofold | Ku70 acetylation, optical density ratio (OD) in pan-acetyl IB of Ku70 IP ([2]; from 2.43 before): 5.6 OD | Inhibition of HDAC8 [3]: Selective inhibition | Inhibition of HDAC10 [4]: not inhibited | AIFM1 expression, M ± m [5]: 12.3 ± 2.89 | BAX expression, M ± m [5]: 319.29 ± 78.06 | BCL2L10 expression, M ± m [5]: 0.13 ± 0.05 | BCL2L11 expression, M ± m [5]: 0.58 ± 0.09 | CASP8 expression, M ± m [5]: 7.13 ± 4.18 | CASP9 expression, M ± m [5]: 9.57 ± 6.69 | CFLAR expression, M ± m [5]: 3.5 ± 1.42 | CFLAR-AS1 expression, M ± m [5]: 0.11 ± 0.04 | DIABLO expression, M ± m [5]: 13.48 ± 3.27 | E2F1 expression, M ± m [5]: 0.39 ± 0.21 | HIC1 expression, M ± m [5]: 0.68 ± 0.44 | MCL1 expression, M ± m [5]: 67.57 ± 34.04 | PPP1R13B expression, M ± m [5]: 0.1 ± 0.05 | PRKCD expression, M ± m [5]: 9 ± 4 | PRKCDBP expression, M ± m [5]: 21.87 ± 9.21 | SIRT1 expression, M ± m [5]: 0.48 ± 0.04 | TP53AIP1 expression, M ± m [5]: 1.11 ± 0.2 | TP53INP2 expression, M ± m [5]: 8.16 ± 0.54 | TP53 expression, M ± m [5]: 1.8 ± 1.19 | XRCC6 expression, M ± m [5]: 84.85 ± 22.88
